# Assay results from patent US10828315B2 (Madrigal Pharmaceuticals, Inc., priority 2013, dated 2020).
# “Also recorded” adds a separate entry of the source. Read-outs that look alike come from different tables or passages of the source.
# How the values were obtained:
# [1] = mouse, in vivo; for Tumor Conc.: female, SCID
# Method: Using the 10 mM stock solutions of the SDC-TRAP molecule and its Hsp90i binding moiety and effector moiety in DMSO, spiking solutions were prepared at 0.025, 0.05, 0.1, 0.5, 1, 5, 10, 50, 100, 250, and 500 μM in DMSO. 5 μL of each spiking solution was added to a 96-deep well plate.
# Quality control standards were prepared from 5 μL of 0.1, 1, and 10 μM calibration standard spiking solution added in triplicate into 96-deep well plate and adding 50 μL of matrix (plasma or homogenized tumor).
# To prepare test samples, test plasma was diluted as needed using blank plasma.
# Tumor samples were pulverized in liquid nitrogen, weighed, and homogenized in PBS at 5× volume to sample weight. 50 μL of unknown plasma or homogenized tumor sample was mixed with 5 μL of DMSO. The samples were extracted by precipitating calibration standards, QC standards, and unknown samples with 200 μL of internal standard solution. The samples were mixed by vortex at room temperature for approximately 1.5 minutes, then centrifuge at 2-8° C. 150 μL of supernatant was collected and 25 μL of water added. Samples were mixed and analyzed by LC-MS/MS.
# Samples of plasma, heart and tumor were excised from a euthanized mouse, homogenized in PBS at 5 times tissue weight and diluted in 5 μL DMSO/50 μL sample. Prior to analysis, 55 μL samples and calibration standards were precipitated in 200 μL methanol in 96-well plates. Samples were mixed on a vortex mixer for 1.5 minutes at 1500 rpm at room temperature, then centrifuged at 4400 rpm for 10 minutes at 8° C. 150 μL of each supernatant was transferred to a well of a new 96-well plate, and 25 μL of water was added and mixed with the sample. […] For the analysis of samples from female SCID mice, a gradient of solvent A (water/0.1% formic acid) and B (acetonitrile/0.1% formic acid) was used as in Table 2 below.
# Various SDC-TRAP molecules and appropriate controls were administered to mice and after various time points the plasma and tumor concentration of these molecules was determined.
# [2] = system: H2AX phosphorylation, HSP70, EGFR, MET; experiment: Pharmacodynamics in CRC (HCT-116) xenograft tumors; assay type: in vivo, mouse
# [3] = mouse
# Method: 150 ng/mL solution of SDC-TRAP-0002 in methanol was prepared using the internal standard spiking solution. This solution was used to precipitate all plasma samples in the study. 200 μL was pipetted into a 96 deepwell plate over dry ice. 10 μL of 1 mM stock in DMSO was added to a 1.5 mL microfuge tube, then 990 μL of plasma. Samples were mixed by vortex, then 50 μL of each sample was added in triplicate to a 96-well plate containing internal standard solution. This was designated the 0 hour time point sample. 250 μL of the remaining plasma sample was added to each of four 96 deepwell plates—one per time point. Samples were incubated at 37° C. with gentle shaking for 0.25, 0.5, and 1 hour. After each time point, one plate of each sample was removed from the shaker and placed on wet ice for approximately 2 minutes. 50 μL at plasma aliquots (in triplicate) were added to the deepwell plate containing internal standard solution. After the last time point was extracted, the 96 deepwell plate was vortexed, then centrifuged at 2-8° C. 150 μL of supernatant was collected and 25 μL at of water was added. Samples were mixed and analyzed by LC-MS/MS.
# 990 μL mouse plasma aliquots from a common stock were spiked with 10 μL of 1 mM stock of one of seven SDC-TRAP samples identified in the table below. Each sample was mixed and divided into 250 μL aliquots, each representing time points 0, 15 minutes, 30 minutes or 1 hour. At the prescribed time point, 3×50 μL samples were each mixed with 200 μL of methanol containing internal standard and held on dry ice until all time point samples were extracted. The samples collectively were vortex mixed for 1.5 minutes at 1500 rpm, then centrifuged at 4400 rpm for 10 minutes at 8° C.
# [4] = Chemical properties of SDC-TRAP-0063; assay type: physicochemical
# Text: SDC-TRAP-0063 is a light yellow solid having the following chemical properties: […]
# [5] = Solubility of SDC-TRAP-0063 (ganetespib placebo formulation, PEG-300); assay type: physicochemical; settings: for solubility at 1 h / solubility at 1 day / solubility at 3 days / solubility at 7 days: ganetespib placebo formulation, organic solvent or mixture, thermodynamic from solid
# Method: Concentration of dissolved drug was determined by HPLC assay method at 1 hr, 1 day, 3 days and 7 days.
# [6] = system: human urinary bladder cancer cell line SW780; experiment: Cytotoxicity assay (CellTiter-Glo, 72 h), SW780; assay type: cell-based; settings: SW780, 72 hours, read-out: Cytotoxicity (IC50, nM) SW-780
# Method: Cytotoxicity of SDC-TRAP molecules was determined in three cancer cell lines. […] 80 μL of CellTiter-Glo was added to each well, followed by room temperature incubation in the dark for 15 minutes. Cell was determined by luminescence. IC50 was calculated using XLfit™ software.
# [7] = system: HCT-116 human colorectal xenografts; experiment: Mouse xenograft efficacy in HCT-116 colon cancer model; settings: IV
# Method: The cells were maintained in vitro as a monolayer culture in McCoy's 5a Medium. Fetal bovine serum was then be added to the medium. The final concentration of fetal bovine serum was 10%. Cells were cultured at 37° C. and 5% CO2. The tumor cells were routinely sub-cultured twice weekly by trypsin-EDTA treatment. Cells in an exponential growth phase were harvested and counted for tumor inoculation.
# 100 18-22 g, 5-7 week old, female BALB/cA nude mice were inoculated with the HCT 116 cells (2.0×10^6, 1:1 with Matrigel) subcutaneously on the back of each animal (0.1 mL/mouse). When the average tumor volume reached about 150-250 mm^3, 60 of the inoculated mice was selected based on tumor growth and randomly grouped into 6 treatment groups (10 mice per group) according to the following table.
# The administrations were made with 27-gauge IV needle.
# During the treatment period, the implanted tumors were measured by caliper twice per week. The tumors were measured for the maximum width (X) and length (Y) and the tumor volumes (V) were calculated using the formula: V=(X^2Y)/2. The differences in the tumor volume between the control and treatment groups were analyzed for significance using the unpaired two-tailed Student's t-test. P<0.05 was considered to be statistically significant. The animal body weights were also weighed and recorded twice per week.
# [8] = Metabolite profiling and identification; assay type: in vitro ADME; set-up: key: —: Not detected; settings: for Metabolite Hydrolysis (SN-38): M+1 393.3; for Metabolite Hydrolysis (SN-38) + H2O (carboxylate form): M+1 411.3; for Metabolite Hydrolysis (SDC-TRAP-0062): M+1 462.3; for Metabolite Hydrolysis (SDC-TRAP-0062) + N-dealkylation + glucuronide: M+1 527.3; for Metabolite Hydrolysis (SN-38) + glucuronidation: M+1 569.3; for Metabolite Hydrolysis (SN-38) + hydroxylation + glucuronidation: M+1 585.3; for Metabolite Hydrolysis (SDC-TRAP-0062) + glucuronidation: M+1 638.3; for Metabolite Hydrolysis (SDC-TRAP-0062) + oxidation + glucuronide: M+1 652.3; for Metabolite Hydrolysis (SDC-TRAP-0062) + di-oxidation + glucuronide: M+1 668.3; for Metabolite Hydrolysis (SDC-TRAP-0062) + H2O (ring opened) + glucuronide: M+1 670.3; for Metabolite Hydroxylation: M+1 896.3; for Metabolite Carboxylate form: M+1 898.3; for Metabolite Di-hydroxylation: M+1 912.4; for Metabolite Glucuronidation: M+1 1056.4
# Text: Metabolite Profiling and Identification: Metabolite profiling/identification for SDC-TRAP-0063 (M+1:880.3)
# [9] = kinetic solubility in ganetespib placebo formulation, Lot6
# [10] = kinetic solubility in ganetespib placebo formulation, Lot8
smiles,measurement,setting,value
"CCc1c2c(nc3ccc(OC(=O)N4CCC(CCn5ccc6cc(-n7c(O)nnc7-c7cc(C(C)C)c(O)cc7O)ccc65)CC4)cc13)-c1cc3c(c(=O)n1C2)COC(=O)[C@]3(O)CC [SDC-TRAP-0063, 4,11-diethyl-4-hydroxy-3,14-dioxo-3,4,12,14-tetrahydro-1H-pyrano[3′,4′:6,7]indolizino[1,2-b]quinolin-9-yl 4-(2-(5-(3-(2,4-dihydroxy-5-isopropylphenyl)-5-hydroxy-4H-1,2,4-triazol-4-yl)-1H-indol-1-yl)ethyl)piperidine-1-carboxylate]",Tumor Conc.,[1]; 6 h,1.61 nmol/g of tissue
same,Tumor Conc.,[1]; 24 h,0.203 nmol/g of tissue
same,Tumor Conc.,[1]; 48 h,0.0188 nmol/g of tissue
same,Tumor Conc.,[1]; […],6.43 nmol/g of tissue
same,Plasma Conc.,[1],BQL
same,"tumor targeting (tissue distribution in plasma, tumor and heart)","[1]; iv, 50 mg/kg",selectively targets and accumulates in tumor cells
same,H2AX phosphorylation,"[2]; HCT-116 tumors, 24 hr",stimulate H2AX phosphorylation at 24 hr
same,"HSP70 and Hsp90 client protein (EGFR, MET) expression","[2]; HCT-116 tumors, 24 hr exposure",induces HSP70 comparable to irinotecan but much less than ganetespib; also recorded: lack of effects on EGFR and MET stability
same,Hsp90 inhibition (conclusion from PD),[2]; HCT-116 xenograft tumors,weak Hsp90 inhibitor
same,kinetics of H2AX phosphorylation,[2]; HCT-116 xenograft tumors,beginning at 8 hr and leveling off at 24 hr
same,Peak Area Ratio,"[3]; 0 h, 10 μM",17.9
same,Peak Area Ratio,"[3]; 0.5 h, 10 μM",7.77
same,Peak Area Ratio,"[3]; 1 h, 10 μM",1.98
same,Peak Area Ratio,"[3]; […], 10 μM",15.6
same,% Remaining (1 h),"[3]; plasma, 1 h, 10 µM",11.1%
same,"% Remaining (1 h, 37° C.)","[3]; plasma, 1 h, 10 µM",11.1%
same,% Remaining (1 h),"[3]; plasma, 1 h, 10 μM",11.1%
same,logP,[4],4.69
same,pKa,[4],9.27
same,Stability remark beside solubility,[4]; In water (pH = 11.8*),not stable
same,solubility,"[4]; aqueous buffer, In water (pH = 9.7)",33 µg/mL
same,solubility,"[4]; aqueous buffer, In water (pH = 11.8*)",926 µg/mL
same,solubility,"[4]; ethanol, organic solvent or mixture, In EtOH",1560 µg/mL
same,solubility,"[4]; organic solvent or mixture, In PEG300",5640 µg/mL
same,solubility at 1 h,"[5]; kinetic solubility in ganetespib placebo formulation (35% v/v tween 80, 40% v/v PEG-300, 25% v/v dehydrated alcohol), Lot6",11300 µg/mL
same,solubility at 1 day,[5]; [9],10200 µg/mL
same,solubility at 3 days,[5]; [9],9680 µg/mL
same,solubility at 7 days,[5]; [9],7320 µg/mL
same,solubility at 1 h,[5]; [10],36200 µg/mL
same,solubility at 1 day,[5]; [10],35300 µg/mL
same,solubility at 3 days,[5]; [10],30000 µg/mL
same,solubility at 7 days,[5]; [10],19700 µg/mL
same,"solubility over time (1 hr, 1 day, 3 days, 7 days)","[5]; lot 6 and lot 8, ganetespib placebo formulation (35% v/v tween 80, 40% v/v PEG-300, 25% v/v dehydrated alcohol), ambient","appear to decrease over time, although no any degradation was observed"
same,IC50,[6],261 nM
same,tolerability,"[7]; HCT-116 xenografts, Q7D×3",very well tolerated
same,antitumor activity in HCT-116 xenografts (FIG. 23),"[7]; Q7D×3, then drug-free period, SDC-TRAP-0063 200 and 100 mg/kg, SDC-TRAP-0046 94 mg/kg, irinotecan 67 mg/kg, SYN-01 100 mg/kg",remarkable and durable antitumor activity compared with irinotecan or ganetespib plus irinotecan; also recorded: better activity in inhibiting the growth of HCT-116 cells in vivo than either positive control group; also recorded: significant dose-dependent activity
same,Metabolite Hydrolysis (SN-38),[8]; Hepatocytes Dog,√
same,Metabolite Hydrolysis (SN-38) + H2O (carboxylate form),[8]; Hepatocytes Dog,—
same,Metabolite Hydrolysis (SDC-TRAP-0062),[8]; Hepatocytes Dog,—
same,Metabolite Hydrolysis (SDC-TRAP-0062) + N-dealkylation + glucuronide,[8]; Hepatocytes Dog,—
same,Metabolite Hydrolysis (SN-38) + glucuronidation,[8]; Hepatocytes Dog,—
same,Metabolite Hydrolysis (SN-38) + hydroxylation + glucuronidation,[8]; Hepatocytes Dog,—
same,Metabolite Hydrolysis (SDC-TRAP-0062) + glucuronidation,[8]; Hepatocytes Dog,—
same,Metabolite Hydrolysis (SDC-TRAP-0062) + oxidation + glucuronide,[8]; Hepatocytes Dog,—
same,Metabolite Hydrolysis (SDC-TRAP-0062) + di-oxidation + glucuronide,[8]; Hepatocytes Dog,—
same,Metabolite Hydrolysis (SDC-TRAP-0062) + H2O (ring opened) + glucuronide,[8]; Hepatocytes Dog,—
same,Metabolite Hydroxylation,[8]; Hepatocytes Dog,√
same,Metabolite Carboxylate form,[8]; Hepatocytes Dog,√
same,Metabolite Di-hydroxylation,[8]; Hepatocytes Dog,√
same,Metabolite Glucuronidation,[8]; Hepatocytes Dog,√
same,Metabolite Hydrolysis (SN-38),[8]; Hepatocytes Human,—
same,Metabolite Hydrolysis (SN-38) + H2O (carboxylate form),[8]; Hepatocytes Human,—
same,Metabolite Hydrolysis (SDC-TRAP-0062),[8]; Hepatocytes Human,—
same,Metabolite Hydrolysis (SDC-TRAP-0062) + N-dealkylation + glucuronide,[8]; Hepatocytes Human,—
same,Metabolite Hydrolysis (SN-38) + glucuronidation,[8]; Hepatocytes Human,√
same,Metabolite Hydrolysis (SN-38) + hydroxylation + glucuronidation,[8]; Hepatocytes Human,—
same,Metabolite Hydrolysis (SDC-TRAP-0062) + glucuronidation,[8]; Hepatocytes Human,—
same,Metabolite Hydrolysis (SDC-TRAP-0062) + oxidation + glucuronide,[8]; Hepatocytes Human,—
same,Metabolite Hydrolysis (SDC-TRAP-0062) + di-oxidation + glucuronide,[8]; Hepatocytes Human,—
same,Metabolite Hydrolysis (SDC-TRAP-0062) + H2O (ring opened) + glucuronide,[8]; Hepatocytes Human,—
same,Metabolite Hydroxylation,[8]; Hepatocytes Human,—
same,Metabolite Carboxylate form,[8]; Hepatocytes Human,—
same,Metabolite Di-hydroxylation,[8]; Hepatocytes Human,—
same,Metabolite Glucuronidation,[8]; Hepatocytes Human,√
same,Metabolite Hydrolysis (SN-38),[8]; Hepatocytes Monkey,√
same,Metabolite Hydrolysis (SDC-TRAP-0062),[8]; Hepatocytes Monkey,—
same,Metabolite Hydrolysis (SDC-TRAP-0062) + N-dealkylation + glucuronide,[8]; Hepatocytes Monkey,—
same,Metabolite Hydrolysis (SN-38) + glucuronidation,[8]; Hepatocytes Monkey,√
same,Metabolite Hydrolysis (SN-38) + hydroxylation + glucuronidation,[8]; Hepatocytes Monkey,√
same,Metabolite Hydrolysis (SDC-TRAP-0062) + glucuronidation,[8]; Hepatocytes Monkey,—
same,Metabolite Hydrolysis (SDC-TRAP-0062) + oxidation + glucuronide,[8]; Hepatocytes Monkey,—
same,Metabolite Hydrolysis (SDC-TRAP-0062) + di-oxidation + glucuronide,[8]; Hepatocytes Monkey,—
same,Metabolite Hydrolysis (SDC-TRAP-0062) + H2O (ring opened) + glucuronide,[8]; Hepatocytes Monkey,—
same,Metabolite Hydroxylation,[8]; Hepatocytes Monkey,—
same,Metabolite Carboxylate form,[8]; Hepatocytes Monkey,—
same,Metabolite Di-hydroxylation,[8]; Hepatocytes Monkey,—
same,Metabolite Hydrolysis (SN-38),[8]; Hepatocytes Mouse,—
same,Metabolite Hydrolysis (SN-38) + H2O (carboxylate form),[8]; Hepatocytes Mouse,—
same,Metabolite Hydrolysis (SDC-TRAP-0062),[8]; Hepatocytes Mouse,—
same,Metabolite Hydrolysis (SDC-TRAP-0062) + N-dealkylation + glucuronide,[8]; Hepatocytes Mouse,—
same,Metabolite Hydrolysis (SN-38) + glucuronidation,[8]; Hepatocytes Mouse,—
same,Metabolite Hydrolysis (SN-38) + hydroxylation + glucuronidation,[8]; Hepatocytes Mouse,—
same,Metabolite Hydrolysis (SDC-TRAP-0062) + glucuronidation,[8]; Hepatocytes Mouse,—
same,Metabolite Hydrolysis (SDC-TRAP-0062) + oxidation + glucuronide,[8]; Hepatocytes Mouse,—
same,Metabolite Hydrolysis (SDC-TRAP-0062) + di-oxidation + glucuronide,[8]; Hepatocytes Mouse,—
same,Metabolite Hydrolysis (SDC-TRAP-0062) + H2O (ring opened) + glucuronide,[8]; Hepatocytes Mouse,—
same,Metabolite Hydroxylation,[8]; Hepatocytes Mouse,—
same,Metabolite Carboxylate form,[8]; Hepatocytes Mouse,—
same,Metabolite Di-hydroxylation,[8]; Hepatocytes Mouse,—
same,Metabolite Glucuronidation,[8]; Hepatocytes Mouse,√
same,Metabolite Hydrolysis (SN-38),[8]; Hepatocytes Rat,—
same,Metabolite Hydrolysis (SN-38) + H2O (carboxylate form),[8]; Hepatocytes Rat,—
same,Metabolite Hydrolysis (SDC-TRAP-0062),[8]; Hepatocytes Rat,—
same,Metabolite Hydrolysis (SDC-TRAP-0062) + N-dealkylation + glucuronide,[8]; Hepatocytes Rat,—
same,Metabolite Hydrolysis (SN-38) + glucuronidation,[8]; Hepatocytes Rat,√
same,Metabolite Hydrolysis (SN-38) + hydroxylation + glucuronidation,[8]; Hepatocytes Rat,—
same,Metabolite Hydrolysis (SDC-TRAP-0062) + glucuronidation,[8]; Hepatocytes Rat,—
same,Metabolite Hydrolysis (SDC-TRAP-0062) + oxidation + glucuronide,[8]; Hepatocytes Rat,—
same,Metabolite Hydrolysis (SDC-TRAP-0062) + di-oxidation + glucuronide,[8]; Hepatocytes Rat,—
same,Metabolite Hydrolysis (SDC-TRAP-0062) + H2O (ring opened) + glucuronide,[8]; Hepatocytes Rat,—
same,Metabolite Hydroxylation,[8]; Hepatocytes Rat,—
same,Metabolite Carboxylate form,[8]; Hepatocytes Rat,—
same,Metabolite Di-hydroxylation,[8]; Hepatocytes Rat,—
same,Metabolite Hydrolysis (SN-38),[8]; Mouse in vivo Plasma 6 h,√
same,Metabolite Hydrolysis (SN-38) + H2O (carboxylate form),[8]; Mouse in vivo Plasma 6 h,√
same,Metabolite Hydrolysis (SDC-TRAP-0062),[8]; Mouse in vivo Plasma 6 h,√
same,Metabolite Hydrolysis (SDC-TRAP-0062) + N-dealkylation + glucuronide,[8]; Mouse in vivo Plasma 6 h,√
same,Metabolite Hydrolysis (SN-38) + glucuronidation,[8]; Mouse in vivo Plasma 6 h,√
same,Metabolite Hydrolysis (SN-38) + hydroxylation + glucuronidation,[8]; Mouse in vivo Plasma 6 h,—
same,Metabolite Hydrolysis (SDC-TRAP-0062) + glucuronidation,[8]; Mouse in vivo Plasma 6 h,√
same,Metabolite Hydrolysis (SDC-TRAP-0062) + oxidation + glucuronide,[8]; Mouse in vivo Plasma 6 h,√
same,Metabolite Hydrolysis (SDC-TRAP-0062) + di-oxidation + glucuronide,[8]; Mouse in vivo Plasma 6 h,√
same,Metabolite Hydrolysis (SDC-TRAP-0062) + H2O (ring opened) + glucuronide,[8]; Mouse in vivo Plasma 6 h,√
same,Metabolite Hydroxylation,[8]; Mouse in vivo Plasma 6 h,—
same,Metabolite Carboxylate form,[8]; Mouse in vivo Plasma 6 h,√
same,Metabolite Di-hydroxylation,[8]; Mouse in vivo Plasma 6 h,—
same,Metabolite Glucuronidation,[8]; Mouse in vivo Plasma 6 h,√
same,Metabolite Hydrolysis (SN-38),[8]; Mouse in vivo Tumor 24 h,√
same,Metabolite Hydrolysis (SN-38) + H2O (carboxylate form),[8]; Mouse in vivo Tumor 24 h,√
same,Metabolite Hydrolysis (SDC-TRAP-0062),[8]; Mouse in vivo Tumor 24 h,√
same,Metabolite Hydrolysis (SDC-TRAP-0062) + N-dealkylation + glucuronide,[8]; Mouse in vivo Tumor 24 h,—
same,Metabolite Hydrolysis (SN-38) + glucuronidation,[8]; Mouse in vivo Tumor 24 h,√
same,Metabolite Hydrolysis (SN-38) + hydroxylation + glucuronidation,[8]; Mouse in vivo Tumor 24 h,—
same,Metabolite Hydrolysis (SDC-TRAP-0062) + glucuronidation,[8]; Mouse in vivo Tumor 24 h,√
same,Metabolite Hydrolysis (SDC-TRAP-0062) + oxidation + glucuronide,[8]; Mouse in vivo Tumor 24 h,—
same,Metabolite Hydrolysis (SDC-TRAP-0062) + di-oxidation + glucuronide,[8]; Mouse in vivo Tumor 24 h,—
same,Metabolite Hydrolysis (SDC-TRAP-0062) + H2O (ring opened) + glucuronide,[8]; Mouse in vivo Tumor 24 h,—
same,Metabolite Hydroxylation,[8]; Mouse in vivo Tumor 24 h,—
same,Metabolite Carboxylate form,[8]; Mouse in vivo Tumor 24 h,√
same,Metabolite Di-hydroxylation,[8]; Mouse in vivo Tumor 24 h,—
same,Metabolite Glucuronidation,[8]; Mouse in vivo Tumor 24 h,√
